This note sets out measurements from ChEMBL document CHEMBL1125167, “Synthesis and broad-spectrum antiviral activity of 7,8-dihydro-7-methyl-8-thioxoguanosine” (1990).

Assay [1] deals with Banzi virus. Kind of assay: Indicates the number of animals that died and survivors lived through 21 days at 25 mg/kg against Banzi virus. The format is functional.
The subject of assay [2] is Banzi virus. In words: Indicates the number of animals that died and survivors lived through 21 days at 50 mg/kg against Banzi virus. Type of assay: functional.
The subject of another assay is Coronaviridae. Kind of assay: Indicates the number of animals that died and survivors lived through 21 days at 100 mg/kg rat corona virus. The format is functional, Coronavirus.
Assay [3] deals with Encephalomyocarditis virus. Kind of assay: Indicates the number of animals that died and survivors lived through 21 days at 50 mg/kg against EMC virus. Type of assay: functional.
Assay [4] relates to Encephalomyocarditis virus. Kind of assay: Indicates the number of animals that died and survivors lived through 21 days at 25 mg/kg against EMC virus. Type of assay: functional.
Assay [5] concerns San Angelo virus. In words: Indicates the number of animals that died and survivors lived through 21 days at 25 mg/kg against San Angelo virus. The format is functional.
For assay [6], the system named is San Angelo virus. In words: Indicates the number of animals that died and survivors lived through 21 days at 50 mg/kg against San Angelo virus. Type of assay: functional.
Assay [7] has as its system Semliki Forest virus. Kind of assay: Indicates the number of animals that died and survivors lived through 21 days at 25 mg/kg against Forest virus. Type of assay: functional.
Assay [8] relates to Semliki Forest virus. Kind of assay: Indicates the number of animals that died and survivors lived through 21 days at 50 mg/kg against Forest virus. The format is functional.
Assay [9] is described as follows: Evaluated for its effect by the ratio between percent survivors and the total animals taken against Banzi virus infection at a dose of 25 mg/kg half-daily intraperitoneal doses at 24 and 18 hours before the virus inoculation; 11/12. Type of assay: functional.
A short description of assay [10]: Evaluated for its effect by the ratio between percent survivors and the total animals taken against Banzi virus infection at a dose of 50 mg/kg half-daily intraperitoneal doses at 24 and 18 hours before the virus inoculation; 10/12. Type of assay: functional.
A short description of assay [11]: Evaluated for its effect by the ratio between percent survivors and the total animals taken against EMC virus infection at a dose of 25 mg/kg half-daily intraperitoneal doses at 24 and 18 hours before the virus inoculation; 6/12. The format is functional.
Assay [12] is described as follows: Evaluated for its effect by the ratio between percent survivors and the total animals taken against EMC virus infection at a dose of 50 mg/kg half-daily intraperitoneal doses at 24 and 18 hours before the virus inoculation; 9/12. The format is functional.
Assay [13] can be described thus: Evaluated for its effect by the ratio between percent survivors and the total animals taken against San Angelo virus infection at a dose of 25 mg/kg half-daily intraperitoneal doses at 24 and 18 hours before the virus inoculation; 9/12. Type of assay: functional.
Assay [14] in a line: Evaluated for its effect by the ratio between percent survivors and the total animals taken against San Angelo virus infection at a dose of 50 mg/kg half-daily intraperitoneal doses at 24 and 18 hours before the virus inoculation; 10/12. Type of assay: functional.
Assay [15] can be described thus: Evaluated for its effect by the ratio between percent survivors and the total animals taken against Forest virus infection at a dose of 25 mg/kg half-daily intraperitoneal doses at 24 and 18 hours before the virus inoculation; 9/12. The format is functional.
Assay [16] is described as follows: Evaluated for its effect by the ratio between percent survivors and the total animals taken against Forest virus infection at a dose of 50 mg/kg half-daily intraperitoneal doses at 24 and 18 hours before the virus inoculation; 10/12. Type of assay: functional.
Assay [17] in a line: Evaluated for its effect by the ratio between percent survivors and the total animals taken against rat corna virus infection at a dose of 100 mg/kg half-daily intraperitoneal doses at 24 and 18 hours before the virus inoculation; 7/12. Type of assay: functional.
The nature of assay [18]: Ratio between percent survivors and the total animals taken against EMC virus infection at a dose of 50 mg/kg half-daily intraperitoneal doses at 24 and 18 hours before the virus inoculation; 9/12. The format is functional.
Assay [19] in a line: Ratio between percent survivors and the total animals taken against San Angelo virus infection at a dose of 25 mg/kg half-daily intraperitoneal doses at 24 and 18 hours before the virus inoculation; 11/12. The format is functional.
Assay [20] can be described thus: Ratio between percent survivors and the total animals taken against San Angelo virus infection at a dose of 50 mg/kg half-daily intraperitoneal doses at 24 and 18 hours before the virus inoculation; 11/12. The format is functional.
The nature of assay [21]: Ratio between percent survivors and the total animals taken against Forest virus infection at a dose of 25 mg/kg half-daily intraperitoneal doses at 24 and 18 hours before the virus inoculation; 8/12. Type of assay: functional.
Assay [22] in a line: Ratio between percent survivors and the total animals taken against Forest virus infection at a dose of 50 mg/kg half-daily intraperitoneal doses at 24 and 18 hours before the virus inoculation; 9/12. Type of assay: functional.
Assay [23] in a line: Ratio between percent survivors and the total animals taken against rat corona virus infection at a dose of 100 mg/kg half-daily intraperitoneal doses at 24 and 18 hours before the virus inoculation; 9/12. Type of assay: functional.
Assay [24] is described as follows: Ratio between percent survivors and the total animals taken against Banzi virus infection at a dose of 50 mg/kg half-daily intraperitoneal doses at 24 and 18 hours before the virus inoculation; 12/12. The format is functional.
Assay [25] is described as follows: Ratio between percent survivors and the total animals taken against EMC virus infection at a dose of 25 mg/kg half-daily intraperitoneal doses at 24 and 18 hours before the virus inoculation; 8/12. The format is functional.
Assay [26] can be described thus: Ratio between percent survivors and the total animals taken against Banzi virus infection at a dose of 25 mg/kg half-daily intraperitoneal doses at 24 and 18 hours before the virus inoculation; 11/12. The format is functional.

SMILES strings stand for the structures.

Take `Cn1c(=S)n(C2O[C@H](CO)[C@@H](O)[C@H]2O)c2nc(N)nc(O)c21` (stereo partly specified): the Mean survival time in the assay with Banzi virus [1] is 9 days; with Banzi virus [2], 9 days; in the assay with Coronaviridae, 9.4 days; in assay [3] it was 5.7 days; in [4], 5.5 days; in the assay on San Angelo virus [5], 11.3 days. The Mean survival time with San Angelo virus [6] came to 10.5 days; in the assay with Semliki Forest virus [7], 8 days; with Semliki Forest virus [8], 9 days. The Ratio in assay [9] came out at 11; in [10] it was 10; in assay [11], 6; in assay [12] it was 9; in [13] it was 9; in assay [14], 10. The Ratio is given as 9 in [15], 10 in assay [16] and 7 in assay [17].
Turning to `Cn1c(=O)n(C2O[C@H](CO)[C@@H](O)[C@H]2O)c2nc(N)nc(O)c21` (stereo partly specified), the Mean survival time in the assay with Banzi virus [1] is 8 days; in the assay on Banzi virus [2], greater than 21 days; with Coronaviridae, 9.7 days; in assay [3], 8 days; in assay [4], 8.3 days; with San Angelo virus [5], 12 days. Moreover, the Mean survival time was 10 days in the assay on San Angelo virus [6], 8.7 days with Semliki Forest virus [7] and 9.7 days with Semliki Forest virus [8]. Moreover, the Ratio in assay [18] was determined as 9; in assay [19] it was 11; in assay [20] it was 11; in [21] it was 8; in [22], 9; in [23], 9. The Ratio in [24] is reported as 12; in assay [25], 8; in assay [26], 11.
